Experimental data from PMC6701825, “Antiproliferative and Antimigratory Effects of a Novel YAP–TEAD Interaction Inhibitor Identified Using in Silico Molecular Docking” (Journal of Medicinal Chemistry, 2019).

Legend:
[1] = target: T1, myc-TEAD1:GFP-YAP complexes (Homo sapiens, UniProt P28347); experiment: Co-immunoprecipitation of myc-TEAD1 and GFP-YAP; format: binding; settings: 200 μM CPD3
T1 construct: #17843 (GFP-YAP1); host or cells: HeLa
Protocol: Figure 1 BUDE screening-identified compound 3 for TEAD inhibition. (A) HeLa cells were stably transduced with a lentiviral viral vector containing 8×TEAD-secreted nanoluciferase reporter gene (TEAD-NLUC). Cells were transfected with non-targeting siRNA (siNEG), siRNA targeting YAP (siYAP), control adenoviral vector or an adenovirus expression constitutively active YAPS127A (Ad:YAP). Culture media were conditioned for 6 h and assayed for secreted nanoluciferase activity (n = 3). (B) HeLa cells stably transduced with TEAD-NLUC were treated with 100 μM of indicated compound for 6 h. Cell conditioned media were assayed for nanoluciferase activity (n = 3). […] (D) Recombinant GST-TEAD1 protein bound to glutathione resin was incubated with 200 μM of the indicated compounds and HEK293 cell lysate containing endogenous YAP protein for 18 h at 4 °C. The resin was washed, and bound YAP eluted and quantified by Western blotting (n = 2). […] Co-immunoprecipitated YAP or TEAD was quantified by Western blotting. […]
HeLa cells were transiently transfected with either pRK5-myc-TEAD1 (Addgene #33109) or pEGFP-C3-YAP1 (Addgene #17843). […] Following washing, immunoprecipitated proteins were eluted by boiling in sodium dodecyl sulfate (SDS) buffer (50 mM Tris pH 6.8, 20% glycerol, 2% SDS) and analyzed by Western blotting.

[2] = tested on: TEAD-independent GAL4 reporter vector; experiment: TEAD-independent reporter vector basal activity (Supplement Figure 10A); format: cell-based; settings: 6 hours
Description: TEAD proteins (TEAD1–4) display a high degree of sequence conservation in residues that create the hydrophobic pocket that is essential for YAP binding.[51] YAP proteins also display a high degree of conservation in residues that interact with this pocket.[51] We therefore tested whether CPD3.1 was able to inhibit YAP-induced activity of TEAD1, TEAD2, TEAD3, and TEAD4. To quantify the effect of CPD3.1 on the activity of each individual TEAD paralog, while excluding interference from endogenously expressed TEAD1–4 proteins, we expressed each TEAD paralog (TEAD1–4) fused to the yeast GAL4 DNA-binding domain. Cells were transfected with the GAL4–TEAD expression vector together with a secreted nanoluciferase reporter gene vector under control of a promoter containing five GAL4 DNA-binding elements. This system allows us to study the effect of CPD3.1 on the activity of each individual TEAD protein in isolation, without interference from endogenously expressed transcription factors. In addition, the cells were co-transfected with a YAP expression vector to activate the GAL4–TEAD fusion-dependent transcription (see Supplement Figure 9). Basal activities of TEAD1, TEAD2, TEAD3, and TEAD4 were inhibited by CPD3.1 (Figure 7A–D). This likely reflects the inhibition of TEAD activity driven by endogenous expression of YAP. […]

T1 sequence (P28347 whole entry, one chain of several): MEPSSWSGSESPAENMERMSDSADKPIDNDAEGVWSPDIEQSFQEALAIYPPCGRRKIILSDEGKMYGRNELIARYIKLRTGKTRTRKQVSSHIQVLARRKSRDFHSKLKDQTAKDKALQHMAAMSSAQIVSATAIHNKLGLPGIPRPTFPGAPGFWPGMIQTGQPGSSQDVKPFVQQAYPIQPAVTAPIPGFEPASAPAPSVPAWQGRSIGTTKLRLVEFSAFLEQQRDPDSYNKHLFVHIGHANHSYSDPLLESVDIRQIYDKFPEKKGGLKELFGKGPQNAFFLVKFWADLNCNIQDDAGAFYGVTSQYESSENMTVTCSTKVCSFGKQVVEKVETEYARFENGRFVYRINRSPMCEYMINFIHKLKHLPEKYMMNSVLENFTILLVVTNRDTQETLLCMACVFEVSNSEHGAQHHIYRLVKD

| Structure (SMILES) | binding of GFP-YAP to immunoprecipitated myc-TEAD1 (myc-Trap co-IP) [1] | binding of myc-TEAD1 to affinity-purified GFP-YAP (GFP-Trap co-IP) [1] | basal activity of a TEAD-independent GAL4 reporter vector [2] |
| --- | --- | --- | --- |
| Cc1ccc2c(c1)c1c3n2CCN(CC(O)CN2CCN(C(=O)c4ccco4)CC2)C3CCC1 (stereo not drawn) [CPD3] | inhibited binding of GFP–YAP | inhibited binding of myc-TEAD1 |  |
| Cc1ccc2c(c1)c1c3n2CCNC3CCC1 (stereo not drawn) [CPD3.1] |  |  | did not inhibit the basal activity |
